Laboratory results published in patent publication US8404695B2, “Pyrimidinyl pyridone inhibitors of JNK” (Roche Palo Alto LLC, priority 2008, dated 2013).

Legend:
[1] = target: Human JNK2α2 (Homo sapiens, UniProt P45984); experiment: JNK assay in vitro, phosphorylation of GST-ATF2 (19-96) with [γ-33P] ATP, JNK2; format: biochemical; conditions: 1 nM enzyme, 1 μM ATF2, 8 μM ATP, 30° C. for 30 min
Description: (§1) JNK activity was measured by phosphorylation of GST-ATF2 (19-96) with [γ-^33P] ATP. The enzyme reaction was conducted at Km concentrations of ATP and the substrate at final volume of 40 μl in buffer containing 25 mM HEPES, pH 7.5, 2 mM dithiothreitol, 150 mM NaCl, 20 mM MgCl2, 0.001% Tween® 20, 0.1% BSA and 10% DMSO. Human JNK2α2 assay contains 1 nM enzyme, 1 μM ATF2, 8 μM ATP with 1 uCi [γ-^33P] ATP. Human JNK1α1 assay contains 2 nM enzyme, 1 μM ATF2, 6 μM ATP with 1 μCi [γ-^33P] ATP. Human JNK3 (Upstate Biotech #14-501M) assay contains 2 nM enzyme, 1 μM ATF2, 4 μM ATP with 1 μCi [γ-^33P] ATP. The enzyme assay was carried out in the presence or absence of several compound concentrations. JNK and compound were pre-incubated for 10 min., followed by initiation of the enzymatic reaction by adding ATP and the substrate. The reaction mixture was incubated at 30° C. for 30 min. At the end of incubation, the reaction was terminated by transferring 25 μl of the reaction mixture to 150 μl of 10% glutathione Sepharose® slurry (Amersham # 27-4574-01) containing 135 mM EDTA. The reaction product was captured on the affinity resin, and washed on a filtration plate (Millipore, MABVNOB50) with phosphate buffered saline for six times to remove free radionucleotide. The incorporation of ^33P into ATF2 was quantified on a microplate scintillation counter (Packard Topcount). Compound inhibition potency on JNK was measured by IC50 value generated from ten concentration inhibition curves fitted into the 3-parameter model: % inhibition=Maximum/(1+(IC50/[Inhibitor])^slope). Data were analyzed on Microsoft Excel for parameter estimation.

[2] = target: Human JNK1α1 (Homo sapiens, UniProt P45983); experiment: JNK assay in vitro, phosphorylation of GST-ATF2 (19-96) with [γ-33P] ATP, JNK1; format: biochemical; conditions: 2 nM enzyme, 1 μM ATF2, 6 μM ATP, 30° C. for 30 min
Chain of Human JNK1α1 (P45983 1-384 isoform P45983-2): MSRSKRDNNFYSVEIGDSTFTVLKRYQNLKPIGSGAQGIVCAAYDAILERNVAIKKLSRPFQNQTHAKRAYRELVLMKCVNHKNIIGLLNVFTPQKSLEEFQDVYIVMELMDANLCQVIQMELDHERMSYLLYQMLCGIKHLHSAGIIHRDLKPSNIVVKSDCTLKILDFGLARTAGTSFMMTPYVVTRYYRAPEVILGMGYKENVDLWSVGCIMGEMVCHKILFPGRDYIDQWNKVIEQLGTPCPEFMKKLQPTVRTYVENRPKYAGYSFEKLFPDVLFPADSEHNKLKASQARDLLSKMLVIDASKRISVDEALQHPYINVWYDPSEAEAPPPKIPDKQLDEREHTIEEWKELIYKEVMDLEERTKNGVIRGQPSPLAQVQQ
Description: as §1

Chain of Human JNK2α2 (P45984 whole entry): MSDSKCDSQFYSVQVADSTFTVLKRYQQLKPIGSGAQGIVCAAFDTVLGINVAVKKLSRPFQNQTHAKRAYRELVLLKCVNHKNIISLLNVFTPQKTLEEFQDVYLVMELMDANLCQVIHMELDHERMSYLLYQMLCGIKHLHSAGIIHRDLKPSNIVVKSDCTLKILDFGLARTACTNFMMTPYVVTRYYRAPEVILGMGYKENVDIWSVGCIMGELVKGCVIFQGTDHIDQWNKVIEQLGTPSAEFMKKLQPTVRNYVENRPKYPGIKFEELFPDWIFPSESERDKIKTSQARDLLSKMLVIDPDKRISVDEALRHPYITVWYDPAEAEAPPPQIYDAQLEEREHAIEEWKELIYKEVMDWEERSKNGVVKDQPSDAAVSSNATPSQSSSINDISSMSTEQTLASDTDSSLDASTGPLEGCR

Compound	IC50 [1] [nM]	IC50 [2] [nM]
CC(CCO)n1c(=O)ccc2cnc(NC3CCCCC3)nc21 (stereo not drawn) [Compound 1, 2-Cyclohexylamino-8-(3-hydroxy-1-methyl-propyl)-8H-pyrido[2,3-d]pyrimidin-7-one]	154	70.1
O=c1ccc2cnc(NC3CCCCC3)nc2n1C1CCCC1 [Compound 3, 2-Cyclohexylamino-8-cyclopentyl-8H-pyrido[2,3-d]pyrimidin-7-one]	136	108
CS(=O)(=O)N[C@H]1CC[C@H](Nc2ncc3ccc(=O)n(CCCO)c3n2)CC1 [Compound 5, N-{4-[8-(3-Hydroxy-propyl)-7-oxo-7,8-dihydro-pyrido[2,3-d]pyrimidin-2-ylamino]-cyclohexyl}-methanesulfonamide]	778	282
Cc1cc2cnc(N[C@H]3CC[C@H](O)CC3)nc2n(CCCO)c1=O [Compound 7, 2-(4-Hydroxy-cyclohexylamino)-8-(3-hydroxy-propyl)-6-methyl-8H-pyrido[2,3-d]pyrimidin-7-one]	409	291
CS(=O)(=O)NCCCn1c(=O)ccc2cnc(NC3CCCCC3)nc21 [Compound 9, N-[3-(2-Cyclohexylamino-7-oxo-7H-pyrido[2,3-d]pyrimidin-8-yl)-propyl]-methanesulfonamide]	625	464
Cc1cc2cnc(NC3CCCCC3)nc2n(CCCO)c1=O [Compound 11]	713	503
